Laboratory results: patent publication US10239843B2 (CANCER RESEARCH TECHNOLOGY LIMITED, priority 2014, dated 2019)
Where two headings read alike, the source gives them in different places.

Columns and labels:
PARG in HeLa cell line = test: PARG cell assay (PAR chain immunofluorescence after MMS); type: cell-based; conditions: HeLa cells
How it was run: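 HeLa cells were dosed with compound for 1 h, then given MMS at 50 μg/mL final for a further hour. Cells were methanol-fixed, permeabilised and stained overnight at 4° C with anti-PAR monoclonal antibody. Retained nuclear PAR chains, detected by indirect immunofluorescence, indicate PARG inhibition.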

Human Full Length PARG = Human Full Length PARG (Homo sapiens (Human), UniProt Q86W56); test: PARG enzyme assay (TR-FRET); type: biochemical
[1] = Homo sapiens, MMS treatment, read-out: PARG Cell IC50
[2] = MMS treatment, read-out: PARG Cell IC50
[3] = Homo sapiens, MMS 50 μg/mL, read-out: PARG Cell IC50 Geomean
[4] = read-out: PARG Biochem IC50 Geomean
[5] = MMS 50 μg/mL, read-out: PARG Cell IC50 Geomean

Chain of Human Full Length PARG (Q86W56 whole entry): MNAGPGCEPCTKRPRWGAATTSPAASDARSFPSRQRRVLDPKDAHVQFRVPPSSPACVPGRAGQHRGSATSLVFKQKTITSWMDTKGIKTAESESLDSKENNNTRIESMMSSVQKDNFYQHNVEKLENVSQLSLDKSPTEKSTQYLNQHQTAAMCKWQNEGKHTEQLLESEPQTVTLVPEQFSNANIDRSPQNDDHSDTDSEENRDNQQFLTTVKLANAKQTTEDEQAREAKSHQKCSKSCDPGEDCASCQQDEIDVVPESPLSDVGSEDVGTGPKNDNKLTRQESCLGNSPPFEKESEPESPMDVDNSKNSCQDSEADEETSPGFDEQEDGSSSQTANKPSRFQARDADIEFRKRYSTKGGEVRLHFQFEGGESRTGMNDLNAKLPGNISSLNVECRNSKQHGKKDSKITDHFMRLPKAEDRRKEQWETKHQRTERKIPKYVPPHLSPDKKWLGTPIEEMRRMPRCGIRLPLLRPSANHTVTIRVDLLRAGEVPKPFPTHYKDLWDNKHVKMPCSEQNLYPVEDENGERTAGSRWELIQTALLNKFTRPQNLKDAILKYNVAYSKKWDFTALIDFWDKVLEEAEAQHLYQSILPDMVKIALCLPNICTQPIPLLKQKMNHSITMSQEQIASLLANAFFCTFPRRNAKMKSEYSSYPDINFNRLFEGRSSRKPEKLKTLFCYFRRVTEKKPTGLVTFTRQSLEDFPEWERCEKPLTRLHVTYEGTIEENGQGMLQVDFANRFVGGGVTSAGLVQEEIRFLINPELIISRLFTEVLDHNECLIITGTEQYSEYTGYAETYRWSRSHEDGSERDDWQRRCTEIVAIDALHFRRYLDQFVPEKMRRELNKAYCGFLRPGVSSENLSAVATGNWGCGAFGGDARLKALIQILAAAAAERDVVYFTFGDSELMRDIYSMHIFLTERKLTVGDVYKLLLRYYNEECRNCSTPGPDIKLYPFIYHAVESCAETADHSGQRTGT

Row | SMILES | IC50 (PARG in HeLa cell line; [1]) [nM] | IC50 (Human Full Length PARG; read-out: PARG Biochem IC50) [nM] | IC50 (Human Full Length PARG; [4]) [nM] | further results
1 | Cc1cc(Cn2c(=O)c3cc(S(=O)(=O)NC4(C)CC4)ccc3n(CCC(=O)N(C)C)c2=O)on1 [Example 406, N, N-Dimethyl-3-[6-[(1-methylcyclopropyl)sulfamoyl]-3-[(3-methylisoxazol-5-yl)methyl]-2,4-dioxo-quinazolin-1-yl]propanamide] | 800 | 456 | – | –
2 | Cc1ncc(Cn2c(=O)c3cc(S(=O)(=O)NC4(C)CC4)ccc3n(Cc3cc(C(F)(F)F)nn3C)c2=O)s1 [Example 231] | – | – | 55 | IC50 (PARG in HeLa cell line; [3]): 47 nM
3 | Cn1cc(Cn2c(=O)c3cc(S(=O)(=O)NC4(C)CC4)ccc3n(CC3CC(C)(C)O3)c2=O)cn1 (stereo not drawn) [Example 351] | – | – | 229 | IC50 (PARG in HeLa cell line; [3]): 358 nM
4 | Cc1cc(Cn2c(=O)c3cc(S(=O)(=O)NC4(C)CC4)ccc3n(CC#N)c2=O)on1 [Example 503, 1-(Cyanomethyl)-N-(1-methylcyclopropyl)-3-[(3-methylisoxazol-5-yl)methyl]-2,4-dioxo-quinazoline-6-sulfonamide] | 350 | 604 | – | –
5 | Cc1cc(COc2nc3ccc(S(=O)(=O)NC4(C)CC4)cc3c(=O)n2Cc2cnc(C)s2)n(C)n1 [Example 164] | – | – | 343 | IC50 (PARG in HeLa cell line; [5]): 782 nM
6 | Cc1ncc(Cn2c(=O)c3cc(S(=O)(=O)NC4(C#N)CC4)ccc3n(Cc3ccc(F)cc3)c2=O)s1 [Example 402, N-(1-Cyanocyclopropyl)-1-[(4-fluorophenyl)methyl]-3-[(2-methylthiazol-5-yl)methyl]-2,4-dioxo-quinazoline-6-sulfonamide] | 167 | 66 | – | –
7 | Cn1cc(Cn2c(=O)[nH]c3cc(F)c(S(=O)(=O)NC4(C)CC4)cc3c2=O)cn1 [Example 384, 7-Fluoro-N-(1-methylcyclopropyl)-3-[(1-methylpyrazol-4-yl)methyl]-2,4-dioxo-1H-quinazoline-6-sulfonamide] | – | – | 374 | IC50 (PARG in HeLa cell line; [5]): 974 nM
8 | Cc1cc(Cn2c(=O)c3cc(S(=O)(=O)NC4(CF)CC4)ccc3n(C)c2=O)on1 [Example 514, N-[1-(Fluoromethyl)cyclopropyl]-1-methyl-3-[(3-methylisoxazol-5-yl)methyl]-2,4-dioxo-quinazoline-6-sulfonamide] | 178 | 384 | – | –
9 | Cc1cc(Cn2nc(NCCN(C)C)c3ccc(S(=O)(=O)NC4(C)CC4)cc3c2=O)on1 [Example 253] | – | – | 376 | IC50 (PARG in HeLa cell line; [3]): 2020 nM
10 | Cc1cc(Cn2c(=O)c3cc(S(=O)(=O)NC4(CF)CC4)ccc3n(Cc3cocn3)c2=O)on1 [Example 559, N-[1-(Fluoromethyl)cyclopropyl]-3-[(3-methylisoxazol-5-yl)methyl]-1-(oxazol-4-ylmethyl)-2,4-dioxo-quinazoline-6-sulfonamide] | 60 | 85 | – | –
11 | Cc1cc(Cn2c(=O)c3cc(S(=O)(=O)NC4(C)CC4)ccc3n(CC3CN(C=O)C3)c2=O)on1 [Example 425, 1-[(1-Formylazetidin-3-yl)methyl]-N-(1-methylcyclopropyl)-3-[(3-methylisoxazol-5-yl)methyl]-2,4-dioxo-quinazoline-6-sulfonamide] | 7810 | 214 | – | –
12 | CNC(=O)c1cc(S(=O)(=O)NC2(C)CC2)cc2c(=O)n(Cc3cnn(C)c3)c(=O)[nH]c12 [Example 450, N-Methyl-6-[(1-methylcyclopropyl)sulfamoyl]-3-[(1-methylpyrazol-4-yl)methyl]-2,4-dioxo-1H-quinazoline-8-carboxamide] | 2520 | 213 | – | –
13 | CC1(NS(=O)(=O)c2ccc3c(c2)c(=O)n(CC#N)c(=O)n3Cc2ccc(F)cc2)CC1 [Example 186] | – | – | 441 | IC50 (PARG in HeLa cell line; [3]): 307 nM
14 | COCCCn1c(=O)n(Cc2cc(C)no2)c(=O)c2cc(S(=O)(=O)NC3(CF)CC3)ccc21 [Example 525, N-[1-(Fluoromethyl)cyclopropyl]-1-(3-methoxypropyl)-3-[(3-methylisoxazol-5-yl)methyl]-2,4-dioxo-quinazoline-6-sulfonamide] | – | 169 | – | IC50 (PARG in HeLa cell line; [2]): 315 nM
15 | Cc1cc(Cn2c(=O)c3cc(S(=O)(=O)NC4(C)CC4)ccc3n(CC3CC(=O)C3)c2=O)on1 [Example 412, N-(1-Methylcyclopropyl)-3-[(3-methylisoxazol-5-yl)methyl]-2,4-dioxo-1-[(3-oxocyclobutyl)methyl]quinazoline-6-sulfonamide] | 289 | 440 | – | –
16 | Cn1cc(Cn2c(=O)c3cc(S(=O)(=O)NC4(C)CC4)ccc3n(CC3CCSCC3)c2=O)cn1 [Example 380] | – | – | 59 | IC50 (PARG in HeLa cell line; [3]): 90 nM
17 | Cn1cc(CN2C(=O)c3cccc4cc(S(=O)(=O)NC5(C)CC5)cc(c34)C2=O)cn1 [Example 454, N-(1-Methylcyclopropyl)-2-[(1-methylpyrazol-4-yl)methyl]-1,3-dioxo-benzo[de]isoquinoline-5-sulfonamide] | 2070 | 728 | – | –
18 | Cc1cc(Cn2c(=O)c3cc(S(=O)(=O)NC4(C)CC4)ccc3n(Cc3cc(C(F)(F)F)nn3C)c2=O)on1 [Example 230] | – | – | 127 | IC50 (PARG in HeLa cell line; [5]): 213 nM

Continued, in another order:

Row | IC50 (PARG in HeLa cell line; [1]) [nM] | IC50 (Human Full Length PARG; read-out: PARG Biochem IC50) [nM] | IC50 (Human Full Length PARG; [4]) [nM] | SMILES | further results
19 | 134 | 48 | – | Cn1cc(Cn2c(=O)c3cc(S(=O)(=O)NC4(CF)CC4)ccc3n(Cc3cnn(C)c3)c2=O)cn1 [Example 595, N-[1-(Fluoromethyl)cyclopropyl]-1,3-bis[(1-methylpyrazol-4-yl)methyl]-2,4-dioxo-quinazoline-6-sulfonamide] | –
20 | 187 | 55 | – | Cn1cc(Cn2c(=O)c3cc(S(=O)(=O)NC4(CF)CC4)ccc3n(Cc3nncs3)c2=O)cn1 [Example 589, N-[1-(Fluoromethyl)cyclopropyl]-3-[(1-methylpyrazol-4-yl)methyl]-2,4-dioxo-1-(1,3,4-thiadiazol-2-ylmethyl)quinazoline-6-sulfonamide] | –
21 | – | 530 | – | Cn1cc(Cn2c(=O)c3cc(S(=O)(=O)NC4(CF)CC4)ccc3n(CCn3cccn3)c2=O)cn1 [Example 560, N-[1-(Fluoromethyl)cyclopropyl]-3-[(1-methylpyrazol-4-yl)methyl]-2,4-dioxo-1-(2-pyrazol-1-ylethyl)quinazoline-6-sulfonamide] | IC50 (PARG in HeLa cell line; [2]): 810 nM
22 | 751 | 188 | – | Cc1nc(Cn2c(=O)n(Cc3cnn(C)c3)c(=O)c3cc(S(=O)(=O)NC4(CF)CC4)ccc32)n(C)n1 [Example 547, 1-[(2,5-Dimethyl-1,2,4-triazol-3-yl)methyl]-N-[1-(fluoromethyl)cyclopropyl]-3-[(1-methylpyrazol-4-yl)methyl]-2,4-dioxo-quinazoline-6-sulfonamide] | –
23 | 42 | 40 | – | Cn1cc(Cn2c(=O)c3cc(S(=O)(=O)NC4(CF)CC4)ccc3n(CC3CC3)c2=O)cn1 [Example 417, 1-(Cyclopropylmethyl)-N-[1-(fluoromethyl)cyclopropyl]-3-[(1-methylpyrazol-4-yl)methyl]-2,4-dioxo-quinazoline-6-sulfonamide] | –
24 | 135 | 257 | – | Cn1cc(Cn2c(=O)c3cc(S(=O)(=O)NC4(C)CC4)ccc3n(CC(F)(F)F)c2=O)cn1 [Example 621, N-(1-Methylcyclopropyl)-3-[(1-methylpyrazol-4-yl)methyl]-2,4-dioxo-1-(2,2,2-trifluoroethyl)quinazoline-6-sulfonamide] | –
25 | – | 68 | – | C#CCn1c(=O)n(Cc2cnn(C)c2)c(=O)c2cc(S(=O)(=O)NC3(CF)CC3)ccc21 [Example 440, N-[1-(Fluoromethyl)cyclopropyl]-3-[(1-methylpyrazol-4-yl)methyl]-2,4-dioxo-1-prop-2-ynyl-quinazoline-6-sulfonamide] | IC50 (PARG in HeLa cell line; [2]): 50 nM
26 | 70 | 118 | – | Cn1cc(Cn2c(=O)c3cc(S(=O)(=O)NC4(C)CC4)ccc3n(CC3CC(F)(F)C3)c2=O)cn1 [Example 436, 1-[(3,3-Difluorocyclobutyl)methyl]-N-(1-methylcyclopropyl)-3-[(1-methylpyrazol-4-yl)methyl]-2,4-dioxo-quinazoline-6-sulfonamide] | –
27 | 558 | 156 | – | Cn1cc(Cn2c(=O)c3cc(S(=O)(=O)NC4(CF)CC4)ccc3n(Cc3nccn3C)c2=O)cn1 [Example 565, N-[1-(Fluoromethyl)cyclopropyl]-1-[(1-methylimidazol-2-yl)methyl]-3-[(1-methylpyrazol-4-yl)methyl]-2,4-dioxo-quinazoline-6-sulfonamide] | –
28 | – | – | 158 | CN1CCCCC1Cn1c(=O)n(Cc2cnn(C)c2)c(=O)c2cc(S(=O)(=O)NC3(C)CC3)ccc21 (stereo not drawn) [Example 238] | IC50 (PARG in HeLa cell line; [3]): 220 nM
29 | 7980 | 207 | – | Cn1cc(Cn2c(=O)c3cc(S(=O)(=O)NC4(CF)CC4)ccc3n(Cc3nc[nH]n3)c2=O)cn1 [Example 587, N-[1-(Fluoromethyl)cyclopropyl]-3-[(1-methylpyrazol-4-yl)methyl]-2,4-dioxo-1-(1H-1,2,4-triazol-3-ylmethyl)quinazoline-6-sulfonamide] | –
30 | 248 | 1470 | – | Cn1cc(Cn2c(=O)c3cc(S(=O)(=O)NC4(C)CC4)ccc3n(C(F)F)c2=O)cn1 [Example 606, 1-(Difluoromethyl)-N-(1-methylcyclopropyl)-3-[(1-methylpyrazol-4-yl)methyl]-2,4-dioxo-quinazoline-6-sulfonamide] | –
31 | – | – | 232 | CN(C)CCCn1c(=O)n(Cc2cnn(C)c2)c(=O)c2cc(S(=O)(=O)NC3(C)CC3)ccc21 [Example 237] | IC50 (PARG in HeLa cell line; [3]): 285 nM
32 | – | – | 59 | Cn1cc(Cn2c(=O)c3cc(S(=O)(=O)NC4(C#N)CC4)ccc3n(Cc3ccc(F)cc3)c2=O)cn1 [Example 358] | IC50 (PARG in HeLa cell line; [3]): 346 nM
33 | – | 24 | – | Cn1cc(Cn2c(=O)c3cc(S(=O)(=O)NC4(CF)CC4)ccc3n(Cc3cnsc3)c2=O)cn1 [Example 577, N-[1-(Fluoromethyl)cyclopropyl]-1-(isothiazol-4-ylmethyl)-3-[(1-methylpyrazol-4-yl)methyl]-2,4-dioxo-quinazoline-6-sulfonamide] | IC50 (PARG in HeLa cell line; [2]): 36 nM
